Data reported in patent US11339419B2, “Scavenger protein(s) for improved preservation of analyte detection sensor(s) and method(s) of use thereof” (Siemens Healthcare Diagnostics Inc., priority 2017, dated 2022).
Several values for one entry are separate records, joined by “and”; a condition that tells them apart may be missing. Identical values can stand only once.

Key:
[1] = test system: creatininase (BBI Solutions); test: BBI Solutions Creatininase Enzyme Absorbance with BSA and MIT; type: biochemical
Procedure: Table 5-8 depict aqueous solutions comprising varying concentrations of BSA (at concentrations of 0 mg/mL, 5 mg/mL, 25 mg/mL, and 50 mg/mL), varying concentrations of MIT (at concentrations of 50 parts per million and 100 parts per million) or Proclin™ 300 (at concentrations of 0.7% and 1.4%) biocide over a particular time period (measurements were taken at days 0, 4, and 14 after exposure of the enzyme(s) to the particular aqueous solutions) and the associated enzyme absorbance measurements for creatininase (commercially offered for sale by BBI Solutions and Toyobo). Absorbance measurements of the creatininase enzyme(s) were taken via spectrophotometer for each aqueous solution (represented as columns 1-5 in Tables 5-8—column 6 is a blank), the absorbance being directly proportional to the enzyme activity being measured-which for Tables 5-8 is creatininase enzyme activity. Accordingly, the higher the absorbance measurement, the higher the enzyme activity of creatininase. Columns 7-11 represent five replicate readings in which the solution only contains BSA (i.e., there is no biocide(s) present in the solution). In addition, the mean values, standard deviations, and coefficients of variation are all presented for the enzyme activity/absorbance of each aqueous solution. All measurements were taken at 37° C.
As depicted in Table 5, creatininase (commercially offered for sale by BBI Solutions) enzyme activity is measured against various concentrations of MIT (biocide) and BSA (scavenger protein) over a period of 14 days (with absorbance measurement taken at 0, 4, and 14 days) for five different aqueous solutions (represented as columns 1-5—column 6 is a blank).

creatininase (Toyobo) = test: Toyobo Creatininase Enzyme Absorbance with BSA and MIT; type: biochemical; conditions: Day 0; 5 mg/mL BSA, no MIT (row of 50 ppm MIT)
Source text: Absorbance measurements of the creatininase enzyme(s) were taken via spectrophotometer for each aqueous solution (represented as columns 1-5 in Tables 5-8—column 6 is a blank), the absorbance being directly proportional to the enzyme activity being measured-which for Tables 5-8 is creatininase enzyme activity. Accordingly, the higher the absorbance measurement, the higher the enzyme activity of creatininase. Columns 7-11 represent five replicate readings in which the solution only contains BSA (i.e., there is no biocide(s) present in the solution). In addition, the mean values, standard deviations, and coefficients of variation are all presented for the enzyme activity/absorbance of each aqueous solution. All measurements were taken at 37° C.
As depicted in Table 6, creatininase (commercially offered for sale by Toyobo) enzyme activity is measured against various concentrations of MIT (biocide) and BSA (scavenger protein) over a period of 14 days (with absorbance measurement taken at 0, 4, and 14 days) for five different aqueous solutions (represented as columns 1-5—column 6 is a blank).

[2] = Day 0, 5 mg/mL BSA, no MIT (row of 50 ppm MIT)
[3] = Day 0, 5 mg/mL BSA, no MIT (row of 100 ppm MIT)
[4] = Day 0, 25 mg/mL BSA, no MIT (row of 50 ppm MIT)
[5] = Day 0, 25 mg/mL BSA, no MIT (row of 100 ppm MIT)
[6] = Day 0, 50 mg/mL BSA, no MIT (row of 50 ppm MIT)
[7] = Day 0, 50 mg/mL BSA, no MIT (row of 100 ppm MIT)
[8] = Day 0, 50 ppm MIT, 25 mg/mL BSA
[9] = Day 0, 50 ppm MIT, 50 mg/mL BSA
[10] = Day 4, 5 mg/mL BSA, no MIT (row of 50 ppm MIT)
[11] = Day 4, 5 mg/mL BSA, no MIT (row of 100 ppm MIT)
[12] = Day 4, 25 mg/mL BSA, no MIT (row of 50 ppm MIT)
[13] = Day 4, 25 mg/mL BSA, no MIT (row of 100 ppm MIT)
[14] = Day 4, 50 mg/mL BSA, no MIT (row of 50 ppm MIT)
[15] = Day 4, 50 mg/mL BSA, no MIT (row of 100 ppm MIT)
[16] = Day 14, 5 mg/mL BSA, no MIT (row of 50 ppm MIT)
[17] = Day 14, 5 mg/mL BSA, no MIT (row of 100 ppm MIT)
[18] = Day 14, 25 mg/mL BSA, no MIT (row of 50 ppm MIT)
[19] = Day 14, 25 mg/mL BSA, no MIT (row of 100 ppm MIT)
[20] = Day 14, 50 mg/mL BSA, no MIT (row of 50 ppm MIT)
[21] = Day 14, 50 mg/mL BSA, no MIT (row of 100 ppm MIT)

Substance: bovine serum albumin [BSA]
- Creatininase Enzyme Absorbance, columns 7-11 [1, 2]: 0.717 and 0.707 and 0.75 and 0.728
- MEAN (columns 7-11) [1, 2]: 0.51
- Creatininase Enzyme Absorbance, columns 7-11 [1, 3]: 0.767 and 0.759 and 0.781 and 0.761 and 0.773
- MEAN (columns 7-11) [1, 3]: 0.56
- Creatininase Enzyme Absorbance, columns 7-11 [1, 4]: 0.736 and 0.712 and 0.709 and 0.752 and 0.746
- MEAN (columns 7-11) [1, 4]: 0.52
- Creatininase Enzyme Absorbance, columns 7-11 [1, 5]: 0.688 and 0.694 and 0.72 and 0.733 and 0.705
- MEAN (columns 7-11) [1, 5]: 0.50
- Creatininase Enzyme Absorbance, columns 7-11 [1, 6]: 0.759 and 0.723 and 0.742 and 0.773 and 0.777
- MEAN (columns 7-11) [1, 6]: 0.54
- Creatininase Enzyme Absorbance, columns 7-11 [1, 7]: 0.661 and 0.68 and 0.708 and 0.702 and 0.686
- MEAN (columns 7-11) [1, 7]: 0.48
- % Bias ([1]; Day 0, 50 ppm MIT vs no MIT, 5 mg/mL BSA): 6.0%
- % Bias ([1]; Day 0, 50 ppm MIT vs no MIT, 25 mg/mL BSA): 4.8%
- % Bias ([1]; Day 0, 50 ppm MIT vs no MIT, 50 mg/mL BSA): 3.6%
- Creatininase Enzyme Absorbance ([1]; Day 0, 50 ppm MIT, 5 mg/mL BSA): 0.774 and 0.737 and 0.726 and 0.733 and 0.74
- MEAN ([1]; Day 0, 50 ppm MIT, 5 mg/mL BSA): 0.54
- Creatininase Enzyme Absorbance [1, 8]: 0.751 and 0.713 and 0.818 and 0.733
- MEAN [1, 8]: 0.54
- Creatininase Enzyme Absorbance [1, 9]: 0.773
- MEAN [1, 9]: 0.56
- % Bias ([1]; Day 0, 100 ppm MIT vs no MIT, 5 mg/mL BSA): 6.8%
- % Bias ([1]; Day 0, 100 ppm MIT vs no MIT, 25 mg/mL BSA): 8.0%
- % Bias ([1]; Day 0, 100 ppm MIT vs no MIT, 50 mg/mL BSA): 3.7%
- MEAN ([1]; Day 0, 100 ppm MIT, 5 mg/mL BSA): 0.59
- MEAN ([1]; Day 0, 100 ppm MIT, 25 mg/mL BSA): 0.54
- MEAN ([1]; Day 0, 100 ppm MIT, 50 mg/mL BSA): 0.49
- Creatininase Enzyme Absorbance, columns 7-11 [1, 10]: 0.95 and 0.906 and 0.917 and 0.926 and 0.911
- MEAN (columns 7-11) [1, 10]: 0.71
- Creatininase Enzyme Absorbance, columns 7-11 [1, 11]: 0.927 and 0.89 and 0.906 and 0.925 and 0.892
- MEAN (columns 7-11) [1, 11]: 0.69
- Creatininase Enzyme Absorbance, columns 7-11 [1, 12]: 0.821 and 0.794 and 0.77 and 0.793
- MEAN (columns 7-11) [1, 12]: 0.59
- Creatininase Enzyme Absorbance, columns 7-11 [1, 13]: 0.793 and 0.779 and 0.783 and 0.8 and 0.814
- MEAN (columns 7-11) [1, 13]: 0.58
- Creatininase Enzyme Absorbance, columns 7-11 [1, 14]: 0.621 and 0.592 and 0.597 and 0.625 and 0.622
- MEAN (columns 7-11) [1, 14]: 0.40
- Creatininase Enzyme Absorbance, columns 7-11 [1, 15]: 0.647 and 0.629 and 0.631 and 0.657 and 0.637
- MEAN (columns 7-11) [1, 15]: 0.43
- % Bias ([1]; Day 4, 50 ppm MIT vs no MIT, 5 mg/mL BSA): 3.8%
- % Bias ([1]; Day 4, 50 ppm MIT vs no MIT, 25 mg/mL BSA): 4.5%
- % Bias ([1]; Day 4, 50 ppm MIT vs no MIT, 50 mg/mL BSA): 14.7%
- MEAN ([1]; Day 4, 50 ppm MIT, 5 mg/mL BSA): 0.73
- MEAN ([1]; Day 4, 50 ppm MIT, 25 mg/mL BSA): 0.61
- MEAN ([1]; Day 4, 50 ppm MIT, 50 mg/mL BSA): 0.46
- % Bias ([1]; Day 4, 100 ppm MIT vs no MIT, 5 mg/mL BSA): 2.3%
- % Bias ([1]; Day 4, 100 ppm MIT vs no MIT, 25 mg/mL BSA): 2.7%
- % Bias ([1]; Day 4, 100 ppm MIT vs no MIT, 50 mg/mL BSA): 14.0%
- MEAN ([1]; Day 4, 100 ppm MIT, 5 mg/mL BSA): 0.71
- MEAN ([1]; Day 4, 100 ppm MIT, 25 mg/mL BSA): 0.60
- MEAN ([1]; Day 4, 100 ppm MIT, 50 mg/mL BSA): 0.49
- Creatininase Enzyme Absorbance, columns 7-11 [1, 16]: 1.062 and 1.055 and 1.027 and 1.067 and 1.069
- MEAN (columns 7-11) [1, 16]: 0.80
- Creatininase Enzyme Absorbance, columns 7-11 [1, 17]: 1.061 and 1.054 and 1.018 and 1.051
- MEAN (columns 7-11) [1, 17]: 0.79
- Creatininase Enzyme Absorbance, columns 7-11 [1, 18]: 0.931 and 0.918 and 0.882 and 0.905 and 0.92
- MEAN (columns 7-11) [1, 18]: 0.65
- Creatininase Enzyme Absorbance, columns 7-11 [1, 19]: 0.91 and 0.907 and 0.879 and 0.898 and 0.905
- MEAN (columns 7-11) [1, 19]: 0.64
- Creatininase Enzyme Absorbance, columns 7-11 [1, 20]: 0.745 and 0.73 and 0.711 and 0.727 and 0.732
- MEAN (columns 7-11) [1, 20]: 0.47
- Creatininase Enzyme Absorbance, columns 7-11 [1, 21]: 0.74 and 0.737 and 0.713 and 0.724
- MEAN (columns 7-11) [1, 21]: 0.47
- % Bias ([1]; Day 14, 50 ppm MIT vs no MIT, 5 mg/mL BSA): 1.8%
- % Bias ([1]; Day 14, 50 ppm MIT vs no MIT, 25 mg/mL BSA): −0.5%
- % Bias ([1]; Day 14, 50 ppm MIT vs no MIT, 50 mg/mL BSA): −2.4%
- MEAN ([1]; Day 14, 50 ppm MIT, 5 mg/mL BSA): 0.81
- MEAN ([1]; Day 14, 50 ppm MIT, 25 mg/mL BSA): 0.65
- MEAN ([1]; Day 14, 50 ppm MIT, 50 mg/mL BSA): 0.46
- % Bias ([1]; Day 14, 100 ppm MIT vs no MIT, 5 mg/mL BSA): 0.3%
- % Bias ([1]; Day 14, 100 ppm MIT vs no MIT, 25 mg/mL BSA): −1.0%
- % Bias ([1]; Day 14, 100 ppm MIT vs no MIT, 50 mg/mL BSA): 0.7%
- MEAN ([1]; Day 14, 100 ppm MIT, 5 mg/mL BSA): 0.79
- MEAN ([1]; Day 14, 100 ppm MIT, 25 mg/mL BSA): 0.64
- MEAN ([1]; Day 14, 100 ppm MIT, 50 mg/mL BSA): 0.47
- absorbance of the creatininase enzyme compared to samples containing 0 mg/mL of BSA ([1]; days 4 and 14, 5, 25 and 50 mg/mL BSA, with MIT): increased absorbance
- creatininase absorbance, solutions 7-11 ([1]; days 4 and 14, only BSA, no MIT): increased (or at least maintained)
- BSA concentration at which the creatininase absorbance measurement is highest ([1]; days 4 and 14, with MIT): 5 mg/mL
- Creatininase Enzyme Absorbance, columns 7-11 (creatininase (Toyobo)): 0.791 and 0.78
